According to patent US20020169111A1, “Reversal of multidrug resistance in human colon carcinoma cells” (American Cyanamid Comany, priority 1998, published 2002):
“And” between values parts separate entries of the source, which are not always exact repeats. Equal values may be shown once. Read-outs that look alike come from different tables or passages of the source.

Legend:
S1 cells = experiment: Drug accumulation analysis with [14C] drug; format: cell-based, human; settings: 90 minutes
Experimental: (§1) To determine the mechanism of resistance, drug resistant and sensitive cells were incubated with radioactive analogues of antitumor agents and cell-associated radioactivity was measured by scintillation counting. Alternatively, surrogates of chemotherapeutic drugs may be used. The surrogate has no antitumor activity itself but interacts with the cancer cell proteins such as P-gp or MRP in a similar manner as an anticancer drug. The surrogate chemotherapeutic drug would have a property such as fluorescence which is useful for determining the drug resistance mechanisms such as efflux.
(§2) Cells were plated in 60 mm dishes (1×10^6 cells per dish) or in 24 well clusters (2 ×10^5 cells per well) and allowed to grow for 1-2 days. […] Drugs used were [^14C]-mitoxantrone (Amersham, 1 or 5 μM; specific activity 66 mCi/mmol) or [^14C]-doxorubicin (Amersham, 0.5 or 3 μM; specific activity 50-62 mCi/mmol ). […] Unbound drug was removed by washing twice in ice-cold phosphate buffered saline (PBS), cells were solubilized in 2 N NaOH at 37° C. for 1-2 hours, and analyzed by scintillation counting. Results were normalized to cell protein content measured by a Lowry assay.
(§3) The cells were then washed, solubilized, and counted in a scintillation counter. Values are mean disintegration per minute per μg protein of triplicate determinations ± standard deviation.

S1-B1-20 cells = experiment: Drug accumulation analysis with [14C] drug; format: cell-based, human; settings: 90 minutes
Experimental: as §1, §2, §3

S1-M1-3.2 cells [1] = experiment: Drug accumulation analysis with [14C] drug; format: cell-based, human; settings: S1-M1-3.2 cells
Experimental: as §1, §2, §3

S1-M1-3.2 cells [2] = settings: for Per Cent Survival Alone: 3 days; for Difference Score: survival alone minus survival with 3.2 μM mitoxantrone
How it was run: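 Cells grown in medium with 5% FBS received reversal agents at 0.1-80 μM (triplicate per dose), with or without the antitumor agent, plus reversal agent-only wells; survival by SRB assay. Difference Score = % survival with drug alone minus % survival with drug plus antitumor agent.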

MCF 7/AdVp cells = format: cell-based, human; settings: MCF 7/AdVp; 5 μM FTC with Paclitaxel
Experimental: (§4) Cell survival was estimated after 3 days using the SRB assay. Cell survival was determined by the SRB assay and EC50 values were determined from toxicity curves. The dose modifying factor (DMF) is the ratio of EC50 values obtained in the absence and presence of reversal agent. Maximum DMF values (shown in parentheses) is the ratio of EC50 values of resistant and sensitive cells in the absence of the reversal agent. This value is obtained when resistance is reversed completely, and is the equivalent of the relative resistance.
In order to determine the utility of FTC as a reversal agent in other multidrug resistant cell lines, FTC was tested in two breast cancer cell lines which show a multidrug resistant phenotype with no overexpression of P-gp or MRP.

HL-60 cells = experiment: Dose modifying factor of FTC (SRB, EC50 ratio); format: cell-based; settings: for Dose modifying factor: HL-60
Experimental: as §4

HL-60/AR cells = format: cell-based; settings: for Dose modifying factor: HL-60/AR
Experimental: as §4

MCF-7/BCRP cells [3] = experiment: Dose modifying factor of FTC in BCRP-transfected cells; format: cell-based, human; settings: MCF-7/BCRP
Experimental: Cell survival was estimated after 3 days using the SRB assay, and EC50 values were determined from cytotoxicity curves.

MCF-7 cells = format: cell-based, human; settings: 1 hour retention phase
Experimental: (§5) All incubations were carried out in the absence or presence of FTC (1 or 5 μM).

MCF-7/BCRP cells [4] = format: cell-based, human; settings: MCF-7/BCRP
Experimental: as §5

8226/MR4 cells = experiment: Reversal of mitoxantrone resistance in myeloid cells; format: cell-based, human; settings: selected for resistance to mitoxantrone
H460 = experiment: Sensitization of unselected cells to mitoxantrone; format: cell-based; settings: H460 non small cell lung carcinoma, not selected
A549 = experiment: Sensitization of unselected cells to mitoxantrone; format: cell-based; settings: A549 non small cell lung carcinoma, not selected
[5] = 1 μM [14C]-doxorubicin, 1 hour retention phase
[6] = 1 μM daunorubicin, 1 hour retention phase

COc1ccc2c3c([nH]c2c1)[C@H](C=C(C)C)N1C(=O)[C@@H]2CCCN2C(=O)[C@@H]1C3 [Fumitremorgin C]
Doxorubicin Drug Accumulation with 1 μM FTC (S1 cells; [14C] doxorubicin): 111 ± 15 DPM/μg protein
Mitoxantrone Drug Accumulation with 1 μM FTC (S1 cells; [14C] mitoxantrone): 2246 ± 233 DPM/μg protein
Doxorubicin Drug Accumulation with 1 μM FTC (S1-B1-20 cells; [14C] doxorubicin): 26 ± 1 DPM/μg protein
Mitoxantrone Drug Accumulation with 1 μM FTC (S1-B1-20 cells; [14C] mitoxantrone): 1189 ± 53 DPM/μg protein
increase of amount of doxorubicin retained (S1-M1-3.2 cells [1]; 1 μM FTC): 3.4 fold
increase of amount of mitoxantrone retained (S1-M1-3.2 cells [1]; 1 μM FTC): 2 fold
Doxorubicin Drug Accumulation with 1 μM FTC (S1-M1-3.2 cells [1]; [14C] doxorubicin, 90 minutes): 65 ± 17 DPM/μg protein
Mitoxantrone Drug Accumulation with 1 μM FTC (S1-M1-3.2 cells [1]; [14C] mitoxantrone, 90 minutes): 2220 ± 147 DPM/μg protein
concentration giving 40% cell death (compound alone) (S1-M1-3.2 cells [2]; S1-M1-3.2 cells): greater than 80 μM
toxicity alone (in words) (S1-M1-3.2 cells [2]; S1-M1-3.2 cells, dose range tested 0.1-80 μM): No toxicity
Per Cent Survival with 3.2 μM mitoxantrone (S1-M1-3.2 cells [2]; S1-M1-3.2 cells, drug 0.1 μM): 95 ± 4 Per Cent
Per Cent Survival Alone (S1-M1-3.2 cells [2]; S1-M1-3.2 cells, drug 0.1 μM alone): 105 ± 4 Per Cent
Difference Score (S1-M1-3.2 cells [2]; S1-M1-3.2 cells, drug 0.1 μM): 10
Per Cent Survival with 3.2 μM mitoxantrone (S1-M1-3.2 cells [2]; S1-M1-3.2 cells, drug 0.5 μM): 39 ± 10 Per Cent
Per Cent Survival Alone (S1-M1-3.2 cells [2]; S1-M1-3.2 cells, drug 0.5 μM alone): 105 ± 2 Per Cent
Difference Score (S1-M1-3.2 cells [2]; S1-M1-3.2 cells, drug 0.5 μM): 66
Per Cent Survival with 3.2 μM mitoxantrone (S1-M1-3.2 cells [2]; S1-M1-3.2 cells, drug 1 μM): 30 ± 1 Per Cent
Per Cent Survival Alone (S1-M1-3.2 cells [2]; S1-M1-3.2 cells, drug 1 μM alone): 103 ± 1 Per Cent
Difference Score (S1-M1-3.2 cells [2]; S1-M1-3.2 cells, drug 1 μM): 73
Per Cent Survival with 3.2 μM mitoxantrone (S1-M1-3.2 cells [2]; S1-M1-3.2 cells, drug 5 μM): 24 ± 4 Per Cent
Per Cent Survival Alone (S1-M1-3.2 cells [2]; S1-M1-3.2 cells, drug 5 μM alone): 99 ± 5 Per Cent
Difference Score (S1-M1-3.2 cells [2]; S1-M1-3.2 cells, drug 5 μM): 75
Per Cent Survival with 3.2 μM mitoxantrone (S1-M1-3.2 cells [2]; S1-M1-3.2 cells, drug 10 μM): 22 ± 6 Per Cent
Per Cent Survival Alone (S1-M1-3.2 cells [2]; S1-M1-3.2 cells, drug 10 μM alone): 99 ± 1 Per Cent
Difference Score (S1-M1-3.2 cells [2]; S1-M1-3.2 cells, drug 10 μM): 77
Per Cent Survival with 3.2 μM mitoxantrone (S1-M1-3.2 cells [2]; S1-M1-3.2 cells, drug 20 μM): 17 ± 10 Per Cent
Per Cent Survival Alone (S1-M1-3.2 cells [2]; S1-M1-3.2 cells, drug 20 μM alone): 104 ± 4 Per Cent
Difference Score (S1-M1-3.2 cells [2]; S1-M1-3.2 cells, drug 20 μM): 87
Per Cent Survival with 3.2 μM mitoxantrone (S1-M1-3.2 cells [2]; S1-M1-3.2 cells, drug 40 μM): 14 ± 11 Per Cent
Per Cent Survival Alone (S1-M1-3.2 cells [2]; S1-M1-3.2 cells, drug 40 μM alone): 108 ± 5 Per Cent
Difference Score (S1-M1-3.2 cells [2]; S1-M1-3.2 cells, drug 40 μM): 94
Per Cent Survival with 3.2 μM mitoxantrone (S1-M1-3.2 cells [2]; S1-M1-3.2 cells, drug 80 μM): 13 ± 11 Per Cent
Per Cent Survival Alone (S1-M1-3.2 cells [2]; S1-M1-3.2 cells, drug 80 μM alone): 94 ± 4 Per Cent
Difference Score (S1-M1-3.2 cells [2]; S1-M1-3.2 cells, drug 80 μM): 81
Toxicity (>20%) (S1-M1-3.2 cells [2]; compound alone, concentration that causes greater than 20% cell death of S1-M1-3.2 cells): >80.0 µM
Toxicity (>20%) (μM) (S1-M1-3.2 cells [2]; compound alone, concentration that causes greater than 20% cell death of S1-M1-3.2 cells, listed as FTC): greater than 80.0 μM
IC50 (S1-M1-3.2 cells [2]; read-out: IC50 (μM), resensitizing S1-M1-3.2 cells to mitoxantrone, with 3.2 μM mitoxantrone, 50% cancer cell death, listed as FTC): 0.35 µM and 0.3 µM
Dose modifying factor (MCF 7/AdVp cells): 0.7 (10.7)
Dose modifying factor (HL-60 cells; 5 μM FTC with Doxorubicin): 2.1
Dose modifying factor (HL-60 cells; 5 μM FTC with Mitoxantrone): 1.3
Dose modifying factor (HL-60 cells; 5 μM FTC with Paclitaxel): 1.0
reversal activity of FTC (fold), range over drugs (HL-60 cells; parental line HL-60): 1.0-2.1 fold
reversal activity of FTC (fold), range over drugs (HL-60/AR cells; HL60/AR): 2.6-3.3 fold
Dose modifying factor (HL-60/AR cells; 5 μM FTC with Doxorubicin): 2.8 (92.3)
Dose modifying factor (HL-60/AR cells; 5 μM FTC with Mitoxantrone): 3.3 (53)
Dose modifying factor (HL-60/AR cells; 5 μM FTC with Paclitaxel): 2.6 (5.1)
reversal of resistance in MRP-positive HL60/AR cells (in words) (HL-60/AR cells; doxorubicin-selected): did not reverse resistance
Dose modifying factor (5 μM FTC) (MCF-7/BCRP cells [3]; with Doxorubicin): 6.6
Dose modifying factor (5 μM FTC) (MCF-7/BCRP cells [3]; with Mitoxantrone): 29.4
Dose modifying factor (5 μM FTC) (MCF-7/BCRP cells [3]; with Paclitaxel): 1.1
Dose modifying factor (5 μM FTC) (MCF-7/BCRP cells [3]; with Topotecan): 6.5
[^14C] doxorubicin retention, 1 μM FTC (MCF-7 cells; 1 μM [14C]-doxorubicin): 10.3 ± 0.26 DPM per microgram protein
[^14C] doxorubicin retention, 5 μM FTC (MCF-7 cells; 1 μM [14C]-doxorubicin): 11.0 ± 0.71 DPM per microgram protein
daunorubicin retention, Channel Number (fluorescence units), 1 μM FTC (MCF-7 cells; 1 μM daunorubicin): 16.0 ± 0.98 fluorescence units
daunorubicin retention, Channel Number (fluorescence units), 5 μM FTC (MCF-7 cells; 1 μM daunorubicin): 16.8 ± 1.0 fluorescence units
[^14C] doxorubicin retention, 1 μM FTC (MCF-7/BCRP cells [4]; [5]): 9.5 ± 0.63 DPM per microgram protein
[^14C] doxorubicin retention, 5 μM FTC (MCF-7/BCRP cells [4]; [5]): 9.9 ± 0.18 DPM per microgram protein
daunorubicin retention, Channel Number (fluorescence units), 1 μM FTC (MCF-7/BCRP cells [4]; [6]): 12.2 ± 1.78 fluorescence units
daunorubicin retention, Channel Number (fluorescence units), 5 μM FTC (MCF-7/BCRP cells [4]; [6]): 15.6 ± 0.94 fluorescence units
increase of amount of [^14C]-doxorubicin retained compared with untreated cells (MCF-7/BCRP cells [4]; FTC 1 or 5 μM): 1.8 fold
increase of amount of daunorubicin retained compared with untreated cells (MCF-7/BCRP cells [4]; FTC 1 or 5 μM): 1.8-2.3 fold
reversal of resistance in 8226/MR4 cells (in words) (8226/MR4 cells): reversed low level resistance
sensitization to mitoxantrone (in words) (H460): can be sensitized to mitoxantrone
sensitization to mitoxantrone (in words) (A549): can be sensitized to mitoxantrone
